# Assay: Single dose tissue distribution study (QWBA, LSC of blood and plasma)
# Format: in vivo, Sprague-Dawley rats
# Method: Six male rats were administered a single oral dose of [^14C]PPI-1011 at 100 mg/kg (200 μCi/kg) and one rat was sacrificed at each of the following time points after the administration of the dose: 8, 12, 18, 24, 48, or 168 h. Terminal blood was collected by cardiac puncture directly into tubes with K2EDTA, an aliquot was stored at 4°C until LSC was performed for radioactivity, while the remaining blood was processed to plasma and stored at −20°C until LSC. Following blood collection, the carcasses were frozen in a cold bath with hexanes and dry ice for at least 8 min and then dried and stored at −70°C for at least 5 h. The carcasses were transferred to a −20°C freezer for at least 12 h before embedding.
# QWBA was used to determine radioactivity concentrations in the caecum (contents and mucosa), large intestine (contents and mucosa), small intestine (contents and mucosa), stomach (contents and mucosa), brain, choroid plexus, spinal cord, bone, skin, adrenal gland, pineal body, pituitary gland, thyroid gland, liver, kidney (cortex, medulla and whole kidney), urinary bladder (contents and wall), brown fat, white fat, eye (lens, uveal tract and whole eye), epididymis, prostate gland, testis, ovary, uterus, lung, exorbital lachrymal gland, Harderian gland, pancreas, salivary gland, skeletal muscle, myocardium, cardiac blood, bone marrow, lymph node, spleen, and thymus. As well, LSC was used to determine the total radioactivity in the whole blood and plasma.
# The whole-body cryosectioning technique described by ([Ullberg, 1977]) was the basis for embedding and cryosectioning the rats assigned to this study. Each frozen carcass was shaved, and then the limbs and tail were removed prior to embedding. Chilled (4°C) 3% CMC (low viscosity) was utilized to provide a firm support of reinforced ice around each rat and for a secure attachment to the microtome stage. Upon thorough freezing of the embedding medium surrounding each rat, the frozen CMC block was removed from the freezing bath and four 3/8 inch holes were drilled into the block. One cryosection quality control standard (CQCS) was prepared with a known amount of radioactivity and at least 1 ml aliquots were added to each of the four drilled holes. CQCS data were utilized to evaluate the overall performance of the QWBA assay.
# Each frozen rat was sagittally trimmed (50–100 μm) at −20°C until exposure of a few target tissues employing a Leica Cryomacrocut heavy-duty microtome (Leica Microsystems Inc.,). Disposable stainless steel Feather type H45L knives (Feather Safety Razor Co., Ltd.) were utilized for trimming and sectioning each frozen rat. Several thinner sections (50 μm) were discarded prior to obtaining multiple 50 μm sections at various cryosectioning levels for QWBA analysis. Upon the collection of at least 60 target tissues in multiple cryosectioning levels, the cryosections were kept in the Cryomacrocut cryochamber for a minimum of 18 h for dehydration depending upon the number of cryosections within the cryochamber. After dehydration was complete, the cryosections were transferred to ambient temperature for processing. Mounted whole-body cryosections and a set of 15 standards were sandwiched between a standard phosphor screen and an exposure cassette. All cryosections were exposed to the phosphor screen for 4-days in a cabinet protected with lead prior to scanning using a Typhoon PhosphorImager (Cytiva). MCID™ Analysis software (InterFocus Ltd.) was utilized to generate a calibration curve of the STD nominal concentrations (nCi/g) versus PhosphorImager response (counts/μm^2 minus background) by weighted (1/x) linear regression analysis ([Potchoiba et al., 1995]; [Potchoiba et al., 1998]). The linear regression curve was then utilized to determine the concentration (nCi/g) of total radioactivity in whole-body tissues and blood. Radioactivity concentrations were expressed as μg Eq/g based on the specific activity of the compound in the final dose formulations. […]
# [1] = 48 h post single oral 100 mg/kg
# [2] = 168 h post single oral 100 mg/kg
structure (smiles),measurement,setting,value
CC/C=C\C/C=C\C/C=C\C/C=C\C/C=C\C/C=C\CCC(=O)O[C@H](CO[14CH2]CCCCCCCCCCCCCCC)COC(=O)CCCCC1CCSS1 (stereo partly shown) [[^14C]PPI-1011],"Radioactivity concentration, Small Intestines",[1],43.3 μg equivalents/g
same,"Radioactivity concentration, Spinal Cord",[1],2.56 μg equivalents/g
same,"Radioactivity concentration, Spleen",[1],33.1 μg equivalents/g
same,"Radioactivity concentration, Stomach",[1],8.01 μg equivalents/g
same,"Radioactivity concentration, Testis",[1],4.02 μg equivalents/g
same,"Radioactivity concentration, Thalamus",[1],1.91 μg equivalents/g
same,"Radioactivity concentration, Thymus",[1],9.58 μg equivalents/g
same,"Radioactivity concentration, Thyroid",[1],27.2 μg equivalents/g
same,"Radioactivity concentration, Whole Brain",[1],2.45 μg equivalents/g
same,"Radioactivity concentration, Adipose - Brown",[2],89.0 μg equivalents/g
same,"Radioactivity concentration, Adipose - Brown (Vessel Wall)",[2],76.7 μg equivalents/g
same,"Radioactivity concentration, Adipose - Subcutaneous",[2],89.3 μg equivalents/g
same,"Radioactivity concentration, Adipose - Visceral",[2],90.7 μg equivalents/g
same,"Radioactivity concentration, Adrenal Gland",[2],142 μg equivalents/g
same,"Radioactivity concentration, Bladder Wall",[2],< 0.485 μg equivalents/g
same,"Radioactivity concentration, Blood - QWBA",[2],2.56 μg equivalents/g
same,"Radioactivity concentration, Bone Marrow",[2],4.69 μg equivalents/g
same,"Radioactivity concentration, Cerebellum",[2],3.59 μg equivalents/g
same,"Radioactivity concentration, Cerebrum",[2],2.94 μg equivalents/g
same,"Radioactivity concentration, Choroid Plexus",[2],10.4 μg equivalents/g
same,"Radioactivity concentration, Colliculus",[2],3.97 μg equivalents/g
same,"Radioactivity concentration, Diaphragm",[2],11.7 μg equivalents/g
same,"Radioactivity concentration, Epididymis",[2],7.75 μg equivalents/g
same,"Radioactivity concentration, Esophagus",[2],5.34 μg equivalents/g
same,"Radioactivity concentration, Exorbital Lacrimal Gland",[2],7.36 μg equivalents/g
same,"Radioactivity concentration, Gastric Mucosa",[2],14.5 μg equivalents/g
same,"Radioactivity concentration, Harderian Gland",[2],3.67 μg equivalents/g
same,"Radioactivity concentration, Intra-Orbital Lacrimal Gland",[2],5.01 μg equivalents/g
same,"Radioactivity concentration, Kidney",[2],14.5 μg equivalents/g
same,"Radioactivity concentration, Large Intestines",[2],14.0 μg equivalents/g
same,"Radioactivity concentration, Liver",[2],7.50 μg equivalents/g
same,"Radioactivity concentration, Lung",[2],11.2 μg equivalents/g
same,"Radioactivity concentration, Lymph Node",[2],12.3 μg equivalents/g
same,"Radioactivity concentration, Medulla Oblongata",[2],3.13 μg equivalents/g
same,"Radioactivity concentration, Muscle",[2],7.01 μg equivalents/g
same,"Radioactivity concentration, Myocardium",[2],13.4 μg equivalents/g
same,"Radioactivity concentration, Nasal Turbinates",[2],4.29 μg equivalents/g
same,"Radioactivity concentration, Ocular - Uveal Tract",[2],6.48 μg equivalents/g
same,"Radioactivity concentration, Ocular - Whole Eye",[2],1.55 μg equivalents/g
same,"Radioactivity concentration, Olfactory Bulb",[2],2.25 μg equivalents/g
same,"Radioactivity concentration, Pancreas",[2],18.2 μg equivalents/g
same,"Radioactivity concentration, Parotid Gland",[2],12.3 μg equivalents/g
same,"Radioactivity concentration, Pineal Gland",[2],12.0 μg equivalents/g
same,"Radioactivity concentration, Pituitary Gland",[2],12.9 μg equivalents/g
same,"Radioactivity concentration, Preputial Gland",[2],69.0 μg equivalents/g
same,"Radioactivity concentration, Prostate",[2],4.44 μg equivalents/g
same,"Radioactivity concentration, Renal Cortex",[2],15.3 μg equivalents/g
same,"Radioactivity concentration, Renal Medulla",[2],11.8 μg equivalents/g
same,"Radioactivity concentration, Salivary Gland",[2],15.4 μg equivalents/g
same,"Radioactivity concentration, Seminal Vesicles",[2],< 0.485 μg equivalents/g
same,"Radioactivity concentration, Skin - Non-Pigmented",[2],10.2 μg equivalents/g
same,"Radioactivity concentration, Small Intestines",[2],139 μg equivalents/g
same,"Radioactivity concentration, Spinal Cord",[2],3.33 μg equivalents/g
same,"Radioactivity concentration, Spleen",[2],9.36 μg equivalents/g
same,"Radioactivity concentration, Stomach",[2],4.97 μg equivalents/g
same,"Radioactivity concentration, Testis",[2],3.08 μg equivalents/g
same,"Radioactivity concentration, Thalamus",[2],2.78 μg equivalents/g
same,"Radioactivity concentration, Thymus",[2],7.84 μg equivalents/g
same,"Radioactivity concentration, Thyroid",[2],18.9 μg equivalents/g
same,"Radioactivity concentration, Whole Brain",[2],3.08 μg equivalents/g
same,"Decline of radioactivity from peak concentration, brown adipose","by 168 HPD, single dose",approximately 5 fold
same,"Decline of radioactivity from peak concentration, subcutaneous adipose","by 168 HPD, single dose",~2 fold
same,"Decline of radioactivity from peak concentration, visceral adipose","by 168 HPD, single dose",~3 fold
same,"Average concentration in choroid plexus, pineal gland, pituitary gland versus non-circumventricular CNS tissues",seven days after single dose,approximately 4 fold
same,Radioactivity in urine within the urinary bladder,single dose,no detection of radioactivity
same,Time of highest blood concentration,single dose,8 HPD
same,"Time of highest peak concentration, bladder wall",single dose,8 HPD
same,"Time of highest peak concentration, brown adipose",single dose,12 HPD
same,"Time of highest peak concentration, cecum",single dose,12 HPD
same,"Time of highest peak concentration, choroid plexus",single dose,12 HPD
same,"Time of highest peak concentration, epididymis",single dose,12 HPD
same,"Time of highest peak concentration, esophagus",single dose,8 HPD
same,"Time of highest peak concentration, gastric mucosa",single dose,8 HPD
same,"Time of highest peak concentration, large intestines",single dose,12 HPD
same,"Time of highest peak concentration, pineal gland",single dose,48 HPD
same,"Time of highest peak concentration, pituitary gland",single dose,18 HPD
same,"Time of highest peak concentration, preputial gland",single dose,12 HPD
same,"Time of highest peak concentration, prostate",single dose,24 HPD
same,"Time of highest peak concentration, small intestines",single dose,8 HPD
same,"Time of highest peak concentration, stomach",single dose,12 HPD
same,"Time of highest peak concentration, subcutaneous adipose",single dose,12 HPD
same,"Time of highest peak concentration, testis",single dose,18 HPD
same,"Time of highest peak concentration, visceral adipose",single dose,12 HPD
same,"Time of peak levels, non-circumventricular CNS tissue",single dose,168 HPD
same,"Concentration in choroid plexus, pineal gland, pituitary gland versus non-circumventricular CNS tissues","throughout the time course, single dose",approximately 4 fold

# Reference: paper PMC9081329, “Pharmacokinetics, Mass Balance, Excretion, and Tissue Distribution of Plasmalogen Precursor PPI-1011” (Frontiers in Cell and Developmental Biology, 2022)
